Laboratory results as given in ChEMBL document CHEMBL4190228, “Covalent inhibitors design and discovery” (Eur J Med Chem, 2017).

Tests used:
[1] = molecular target: Tyrosine-protein kinase BTK (Homo sapiens) (UniProt Q06187); test: Receptor occupancy at BTK in human Ramos B cells at 1 uM preincubated for 1 hr followed by compound washout measured after 20 hrs by PP-BODIPY probe based fluorescence assay; assay type: cell-based
Tyrosine-protein kinase BTK (Homo sapiens), sequence (Q06187 whole entry): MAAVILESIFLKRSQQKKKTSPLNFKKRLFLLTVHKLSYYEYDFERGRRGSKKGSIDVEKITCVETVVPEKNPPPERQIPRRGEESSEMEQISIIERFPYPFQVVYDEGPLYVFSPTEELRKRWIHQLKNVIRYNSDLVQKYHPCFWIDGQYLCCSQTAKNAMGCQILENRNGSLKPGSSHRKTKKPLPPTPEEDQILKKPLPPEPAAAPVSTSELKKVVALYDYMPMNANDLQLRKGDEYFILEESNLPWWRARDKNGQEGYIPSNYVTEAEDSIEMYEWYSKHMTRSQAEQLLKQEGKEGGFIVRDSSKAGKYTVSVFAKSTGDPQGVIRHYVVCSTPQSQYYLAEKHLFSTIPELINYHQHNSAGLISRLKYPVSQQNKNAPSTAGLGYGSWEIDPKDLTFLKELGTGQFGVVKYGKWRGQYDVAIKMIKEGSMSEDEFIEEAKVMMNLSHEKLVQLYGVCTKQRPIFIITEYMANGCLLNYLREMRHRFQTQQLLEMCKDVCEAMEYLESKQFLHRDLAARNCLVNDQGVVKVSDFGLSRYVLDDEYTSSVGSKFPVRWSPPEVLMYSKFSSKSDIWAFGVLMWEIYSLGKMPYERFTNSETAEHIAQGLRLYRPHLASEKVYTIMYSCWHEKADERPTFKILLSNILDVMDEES

| SMILES | T1/2 (Francisella tularensis) | Occ [1] |
| --- | --- | --- |
| CC(C)(C)NC(=O)[C@H]1CC[C@H]2[C@@H]3CC[C@H]4NC(=O)C=C[C@]4(C)[C@H]3CC[C@]12C | 4.7 to 7.1 h | – |
| CC(C)(C)/C=C(\C#N)C(=O)N1CCC[C@@H](n2nc(-c3ccc(Oc4ccccc4)cc3)c3c(N)ncnc32)C1 | – | 50% |
| C/C=C(\C#N)C(=O)N1CCC[C@@H](n2nc(-c3ccc(Oc4ccccc4)cc3)c3c(N)ncnc32)C1 | – | 5% |
